Literature values as cited in patent US10100341B2, “Tailored oils produced from recombinant oleaginous microorganisms” (Corbion Biotech, Inc., priority 2011, dated 2018).

How the values were obtained:
[1] = system: Chlorella ellipsoidea; conditions: 30 ug/mL G418; cited from earlier work
[2] = system: Amphidinium sp.; conditions: 3 mg/ml G418; cited from earlier work
[3] = system: Cyclotella cryptica; conditions: 50% artificial seawater medium, 100 ug/ml G418; cited from earlier work
[4] = system: Navicula saprophila; conditions: artificial seawater medium, 100 ug/ml G418; cited from earlier work
[5] = system: Symbiodinium microadriacticum; conditions: 3 mg/ml G418; cited from earlier work
[6] = system: Chlamydomonas reinhardtii; conditions: 90 ug/ml spectinomycin; cited from earlier work
[7] = system: Rhodococcus opacus; conditions: 1 mg/ml thiostrepton; cited from earlier work
[8] = system: Cylindrotheca fusiformis; conditions: 1 mg/ml zeocin; cited from earlier work
[9] = system: Volvox carteri; conditions: 1.5 ug/ml zeocin; cited from earlier work
[10] = system: Nannochloropsis sp. W2J3B; conditions: 2 ug/ml zeocin; cited from earlier work
[11] = system: Phaeodactylum tricornutum; conditions: 50 ug/ml zeocin; cited from earlier work
[12] = system: Chaetoceros sp.; conditions: 500 ug/ml nourseothricin; cited from earlier work
[13] = system: Thalassiosira pseudonana; conditions: 10 ug/ml nourseothricin; cited from earlier work

## CN[C@@H]1[C@@H](O)[C@@H](O[C@@H]2[C@@H](O)[C@H](O[C@H]3O[C@H]([C@@H](C)O)[C@@H](O)[C@H](O)[C@H]3N)[C@@H](N)C[C@H]2N)OC[C@]1(C)O [G418]
[1]
  propagation of untransformed cells in medium comprising the agent: unable to be propagated
[2]
  propagation of untransformed cells in medium comprising the agent: unable to be propagated
[3]
  propagation of untransformed cells in medium comprising the agent: unable to propagate
[4]
  propagation of untransformed cells in medium comprising the agent: unable to propagate
[5]
  propagation of untransformed cells in medium comprising the agent: unable to be propagated

## CN[C@@H]1[C@H](O)[C@H](NC)[C@H]2O[C@@]3(O)C(=O)C[C@@H](C)O[C@H]3O[C@@H]2[C@H]1O [spectinomycin]
[6]
  propagation of untransformed cells in medium comprising the agent: unable to propagate

## C=C(NC(=O)C(=C)NC(=O)c1csc(C2=N[C@@H]3c4csc(n4)[C@H]4NC(=O)c5csc(n5)[C@H]([C@](C)(O)[C@@H](C)O)NC(=O)[C@H]5CSC(=N5)/C(=C/C)NC(=O)[C@H]([C@@H](C)O)NC(=O)c5csc(n5)[C@]3(CC2)NC(=O)[C@H](C)NC(=O)C(=C)NC(=O)[C@H](C)NC(=O)[C@H]([C@@H](C)CC)N[C@@H]2C=Cc3c([C@H](C)O)cc(nc3[C@H]2O)C(=O)O[C@@H]4C)n1)C(N)=O [thiostrepton]
[7]
  propagation of untransformed cells in medium comprising the agent: unable to propagate

## Cc1c(N)nc([C@H](CC(N)=O)NC[C@H](N)C(N)=O)nc1C(=O)N[C@H](C(=O)N[C@H](C)[C@@H](O)[C@H](C)C(=O)N[C@H](C(=O)NCCC1=N[C@@H](c2nc(C(=O)NCCCCN=C(N)N)cs2)CS1)[C@@H](C)O)[C@@H](O[C@@H]1O[C@@H](CO)[C@@H](O)[C@H](O)[C@@H]1O[C@H]1O[C@H](CO)[C@@H](O)[C@H](OC(N)=O)[C@@H]1O)c1cnc[nH]1 [zeocin]
[8]
  propagation of untransformed cells in medium comprising the agent: unable to propagate
[9]
  propagation of untransformed cells in medium comprising the agent: unable to be propagated
[10]
  propagation of untransformed cells in medium comprising the agent: unable to propagate
[11]
  propagation of untransformed cells in medium comprising the agent: unable to propagate

## nourseothricin
[12]
  propagation of untransformed cells in medium comprising the agent: unable to propagate
[13]
  propagation of untransformed cells in medium comprising the agent: unable to propagate
